Measured values from US9708359B2, “Pyrrolopyrimidine nucleosides and analogs thereof” (Chimerix, Inc., priority 2015, dated 2017).

Tested on: mouse norovirus
Assay: Mouse Norovirus (MNV) assay in RAW cells
Details: murine norovirus
[1] = Table 8, N/A = assayed but no EC50 value could be measured

## Cc1nc(N)c2c(C(N)=O)cn([C@H]3C=C[C@@H](O)O3)c2n1 [Compound 124]
[1]
  EC50: > 100 µM

## COc1nc(C)nc2c1c(C(N)=O)cn2[C@@H]1O[C@H](COC(=O)[C@@H](NC(=O)OC(C)(C)C)C(C)C)[C@@H](O)[C@@]1(C)O [Compound 61]
[1]
  EC50: > 100 µM

## Cc1nc(N)c2c(C(N)=O)cn([C@@H]3O[C@H](COC(=O)[C@@H](N)CC(C)C)[C@@H](O)[C@H]3O)c2n1 [Compound 77]
Table 7
  EC50: 4.4 µM

## CCOP(=O)(CO[C@H]1O[C@@H](n2cc(C#N)c3c(N)nc(C)nc32)[C@H](O)[C@@H]1O)OCC [Compound 68]
[1]
  EC50: > 100 µM

## Cc1nc(N)c2cc[nH]c2n1 [Compound 46]
[1]
  EC50: > 100 µM

## Cc1nc(N)c2c(C(N)=O)cn([C@@H]3O[C@H](COC(=O)[C@@H](N)C(C)C)[C@@H](OC(=O)C(N)C(C)C)[C@@]3(C)O)c2n1 (some centres unmarked) [Compound 93]
[1]
  EC50: > 100 µM

## NC(=O)c1cn([C@@H]2O[C@H](CO)[C@@H](O)[C@H]2O)c2nc(-c3ccccc3)nc(N)c12 [Compound 15]
[1]
  EC50: > 100 µM

## Cc1nc(Cl)c2ccn(C[C@H](O)CO)c2n1 [Compound 98]
[1]
  EC50: > 100 µM

## COC(=N)c1cn([C@@H]2O[C@H](COS(=O)(=O)CCCCl)[C@H]3OC(C)(C)O[C@H]32)c2nc(C)nc(N)c12 [Compound 103]
[1]
  EC50: > 100 µM

## Cc1nc(N(C)C)c2c(C(N)=O)cn([C@@H]3O[C@H](CO)[C@@H](O)[C@H]3O)c2n1 [Compound 37]
[1]
  EC50: > 100 µM

## CC#Cc1nc(N)c2c(C(N)=O)cn([C@@H]3O[C@H](CO)[C@@H](O)[C@H]3O)c2n1 [Compound 90]
[1]
  EC50: > 100 µM

## Cc1nc(N)c2c(C(=N)N)cn([C@@H]3O[C@H](CO)[C@@H](O)[C@H]3O)c2n1 [Compound 91]
[1]
  EC50: > 100 µM

## Cc1nc(N)c2c(C(N)=O)cn([C@@H]3O[C@H](C(C)O)[C@@H](O)[C@H]3O)c2n1 (some centres unmarked) [Compound 102]
[1]
  EC50: > 100 µM

## COC(=O)C(OC[C@H]1O[C@@H](n2cc(C#N)c3c(N)nc(C)nc32)[C@H](O)[C@@H]1O)P(=O)(OC)OC (some centres unmarked) [Compound 86]
[1]
  EC50: > 100 µM

## CSc1nc(C)nc2c1c(I)cn2[C@@H]1O[C@H](CO)[C@@H](O)[C@H]1O [Compound 43]
[1]
  EC50: > 100 µM

## Cc1nc(N)c2c(C(N)=O)cn([C@@H]3O[C@H](CO)[C@@H](O)[C@H]3N=[N+]=[N-])c2n1 [Compound 57]
[1]
  EC50: > 100 µM

## CCOP(=O)(CO[C@H]1O[C@@H](n2cc(C(N)=O)c3c(N)nc(C)nc32)[C@H](O)[C@@H]1O)OCC [Compound 73]
[1]
  EC50: > 100 µM

## Cc1nc(N)c2c(C(=O)N(C)C)cn([C@@H]3O[C@H](CO)[C@@H](O)[C@H]3O)c2n1 [Compound 41]
[1]
  EC50: > 100 µM

## Cc1nc(Cl)c2ccn([C@H]3CC=CO3)c2n1 [Compound 120]
[1]
  EC50: > 100 µM

## N#Cc1cn([C@@H]2O[C@H](CO)[C@@H](O)[C@H]2O)c2nc(-c3ccccc3)nc(N)c12 [Compound 17]
[1]
  EC50: > 100 µM

## Cc1nc(N)c2c(C(N)=O)cn([C@H]3C[C@H](O)[C@@H](CO)O3)c2n1 [Compound 92]
[1]
  EC50: > 100 µM

## Cc1nc(N)c2ccn(C[C@H](C)O)c2n1 [Compound 54]
[1]
  EC50: > 100 µM

## CCOP(=O)(COC[C@H]1O[C@@H](n2cc(C(N)=O)c3c(N)nc(C)nc32)[C@H](O)[C@@H]1O)OCC [Compound 25]
[1]
  EC50: > 100 µM

## Cc1nc(N)c2c(C(N)=O)cn([C@@H]3O[C@H](COP(=O)(O)O)[C@@H](O)[C@H]3O)c2n1 [Compound 71]
Table 7
  EC50: 3.15 µM

## Cc1nc(NO)c2c(C(N)=O)cn([C@@H]3O[C@H](CO)[C@@H](O)[C@H]3O)c2n1 [Compound 94]
[1]
  EC50: > 100 µM

## Cc1nc(N)c2c(S(=O)(=O)O)cn([C@@H]3O[C@H](CO)[C@@H](O)[C@H]3O)c2n1 [Compound 84]
[1]
  EC50: > 100 µM

## CCOP(=O)(C[C@H]1O[C@@H](n2cc(C(N)=O)c3c(N)nc(C)nc32)[C@H](O)[C@@H]1O)OCC [Compound 74]
[1]
  EC50: > 100 µM

## Cc1nc(N)c2c(C(N)=O)cn([C@@H]3O[C@H](C)[C@@H](O)[C@H]3O)c2n1 [Compound 97]
[1]
  EC50: > 100 µM

## COc1nc(C)nc2c1c(I)cn2[C@@H]1O[C@H](CO)[C@@H](O)[C@H]1O [Compound 42]
[1]
  EC50: > 100 µM

## Cc1nc(O)c2c(C#N)cn([C@@H]3O[C@H](CO)[C@@H](O)[C@H]3O)c2n1 [Compound 31]
[1]
  EC50: > 100 µM

## COc1nc(C)nc2c1c(C#N)cn2[C@@H]1O[C@H](CO)[C@@H](O)[C@H]1O [Compound 30]
[1]
  EC50: > 100 µM

## NC(=O)c1cn([C@@H]2O[C@H](CO)[C@@H](O)[C@H]2O)c2nc(N)nc(N)c12 [Compound 83]
[1]
  EC50: > 100 µM

## Cc1nc(N)c2c(C(N)=O)cn([C@@H]3O[C@H](CO)[C@@H](N=[N+]=[N-])[C@H]3O)c2n1 [Compound 112]
[1]
  EC50: > 100 µM

## Cc1nc(N)c2c(C(N)=O)cn(C[C@@H](C)OCP(=O)(O)O)c2n1 [Compound 59]
[1]
  EC50: > 100 µM

## COC(=O)c1c[nH]c2nc(C)nc(Cl)c12 [Compound 45]
[1]
  EC50: > 100 µM

## CCOP(=O)(CO[C@H](CO)Cn1cc(C(N)=O)c2c(N)nc(C)nc21)OCC [Compound 53]
[1]
  EC50: > 100 µM

## CCOP(=O)(COC[C@@H]1C=C[C@H](n2cc(C(N)=O)c3c(N)nc(C)nc32)O1)OCC [Compound 67]
[1]
  EC50: > 100 µM

## Cc1ncc2c(C(N)=O)cn([C@@H]3O[C@H](CO)[C@@H](O)[C@H]3O)c2n1 [Compound 35]
[1]
  EC50: > 100 µM

## CC(=O)OC[C@H]1O[C@@H](n2cc(C(N)=O)c3c(N)nc(C)nc32)[C@H](OC(C)=O)[C@@H]1OC(C)=O [Compound 129]
[1]
  EC50: 88.7 µM

## Cc1nc(N)c2c(C(N)=O)cn([C@@H]3O[C@@H](CO)[C@@H](O)[C@H]3O)c2n1 [Compound 109]
[1]
  EC50: > 100 µM

## Cc1nc(N)c2c(C(N)=O)cn([C@@H]3O[C@H](CO)[C@@H](N)[C@H]3O)c2n1 [Compound 113]
[1]
  EC50: > 100 µM

## CCCCCCCCCCCCCCCCOCCCOP(=O)(O)CO[C@H](CO)Cn1cc(C(N)=O)c2c(N)nc(C)nc21 [Compound 56]
[1]
  EC50: 75.3 µM

## CCCCCCCCCCCCCCCCOCCCOP(=O)(N[C@@H](C)C(=O)OC(C)C)OC[C@H]1O[C@@H](n2cc(C(N)=O)c3c(N)nc(C)nc32)[C@H](O)[C@@H]1O (some centres unmarked) [Compound 140]
[1]
  EC50: > 100 µM

## CCCCCCCCCCCCCCCCOCCCC(=O)Nc1nc(C)nc2c1c(C(N)=O)cn2[C@@H]1O[C@H](CO)[C@@H](O)[C@H]1O [Compound 130]
[1]
  EC50: 42.7 µM

## [2H][C@@]1(n2cc(C(N)=O)c3c(N)nc(C)nc32)O[C@H](CO)[C@@H](O)[C@H]1O [Compound 6]
Table 7
  EC50: 3.08 µM

## NC(=S)c1cn([C@@H]2O[C@H](CO)[C@@H](O)[C@H]2O)c2nc(-c3ccccc3)nc(N)c12 [Compound 16]
[1]
  EC50: > 100 µM

## Cc1nc(N)c2c(C(N)=O)cn([C@@H]3O[C@H](COP(=O)(NCc4ccccc4)NCc4ccccc4)[C@@H](O)[C@H]3O)c2n1 [Compound 136]
[1]
  EC50: 64.5 µM

## Cc1nc(N)c2c(C(N)=O)cn([C@@H]3O[C@@H]4OCP(=O)(O)O[C@H]4[C@H]3O)c2n1 [Compound 78]
[1]
  EC50: > 100 µM

## CCOP(=O)(CC[C@H]1O[C@@H](n2cc(C(N)=O)c3c(N)nc(C)nc32)[C@H](O)[C@@H]1O)OCC [Compound 119]
[1]
  EC50: > 100 µM

## CCCC(CCC)C(=O)Nc1nc(C)nc2c1c(C(N)=O)cn2[C@@H]1O[C@H](CO)[C@@H](O)[C@H]1O [Compound 131]
[1]
  EC50: > 100 µM

## Cc1nc(N)c2c(C(N)=O)cn([C@@H]3O[C@H](CP(=O)(O)O)[C@@H](O)[C@H]3O)c2n1 [Compound 75]
[1]
  EC50: > 100 µM

## COc1nc(C)nc2c1c(CN)cn2[C@@H]1O[C@H](CO)[C@@H](O)[C@H]1O [Compound 47]
[1]
  EC50: > 100 µM

## Cc1nc(N)c2c(C(N)=O)cn(C[C@H](O)CO)c2n1 [Compound 50]
[1]
  EC50: > 100 µM

## NC(=O)c1cn([C@@H]2O[C@H](CO)[C@@H](O)[C@H]2O)c2nc(CO)nc(N)c12 [Compound 99]
[1]
  EC50: > 100 µM

## Cc1nc(N)c2c(C(N)=O)cn([C@@H]3O[C@H](COP(=O)(N[C@@H](C)C(=O)OC(C)C)Oc4ccccc4)[C@@H](OC(=O)C(C)C)[C@H]3OC(=O)C(C)C)c2n1 (some centres unmarked) [Compound 133]
Table 7
  EC50: 25.7 µM

## Cc1nc(N)c2c(-c3nn[nH]n3)cn([C@@H]3O[C@H](CO)[C@@H](O)[C@H]3O)c2n1 [Compound 10]
[1]
  EC50: 61.5 µM

## CCOP(=O)(CO[C@H](C)Cn1cc(C(N)=O)c2c(N)nc(C)nc21)OCC [Compound 58]
[1]
  EC50: > 100 µM

## Cc1nc(N)c2c(C(N)=O)cn([C@@H]3O[C@H](COP(=O)(N[C@@H](C)C(=O)OC(C)C)Oc4ccccc4)[C@H]4OC(=O)O[C@H]43)c2n1 (some centres unmarked) [Compound 134]
[1]
  EC50: 68.4 µM

## Cc1nc(N)c2c(C(N)=O)cn([C@@H]3O[C@@](CO)(N=[N+]=[N-])[C@@H](O)[C@H]3O)c2n1 [Compound 105]
[1]
  EC50: > 100 µM

## Cc1nc(N)c2c(C(N)=O)cn(C[C@@H](CO)OCP(=O)(O)O)c2n1 [Compound 52]
[1]
  EC50: > 100 µM

## Cc1nc(N)c2c(C(N)=O)cn([C@@H]3O[C@H](O)[C@@H](O)[C@H]3O)c2n1 [Compound 118]
[1]
  EC50: > 100 µM

## COC(=N)c1cn([C@@H]2O[C@@](CO)(N=[N+]=[N-])[C@@H](O)[C@H]2O)c2nc(C)nc(N)c12 [Compound 100]
[1]
  EC50: > 100 µM

## Cc1nc(N)c2c(C(N)=O)cn([C@@H]3O[C@H](COP(=O)(O)N[C@@H](C)C(=O)OC(C)C)[C@@H](O)[C@H]3O)c2n1 [Compound 141]
Table 7
  EC50: 3.2 µM

## Cc1nc(N)c2c(C(N)=O)cn([C@@H]3O[C@H](COP(=O)(N[C@@H](C)C(=O)OC(C)C)OCc4ccccc4C)[C@@H](O)[C@H]3O)c2n1 (some centres unmarked) [Compound 137]
Table 7
  EC50: 20 µM

## CCOP(=O)(COC(CO)Cn1cc(C(N)=O)c2c(N)nc(C)nc21)OCC (centres unmarked) [Compound 64]
[1]
  EC50: > 100 µM
